Where two headings read alike, the source gives them in different places.
T1: CapB1 (Met1 to Glu228), as it stands in the CapA1B1 chimera (Staphylococcus aureus, UniProt A8YPQ8 1-228)
T1 construct: also called Cap5B1; source: E. coli BL21(DE3), purified (IMAC, gel filtration) as part of the chimera CapA1B1
T1 sequence: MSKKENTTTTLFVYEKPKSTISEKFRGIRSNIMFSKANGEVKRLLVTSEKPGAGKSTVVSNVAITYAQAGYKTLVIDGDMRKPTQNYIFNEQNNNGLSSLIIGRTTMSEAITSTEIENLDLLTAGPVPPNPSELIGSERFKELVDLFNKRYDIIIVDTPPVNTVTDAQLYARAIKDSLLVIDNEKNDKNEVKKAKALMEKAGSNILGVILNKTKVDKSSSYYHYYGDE

B1: CapA1 C-terminal juxtamembrane fragment (Val194 to Asn222), as it stands in the CapA1B1 chimera (domain or fragment)
chain: VIFDKRIKDEEDVEKELGLPVLGSIQKFN
notes: also called Cap5A1; source: E. coli BL21(DE3), purified (IMAC, gel filtration) as part of the chimera CapA1B1

How the values were obtained:
[1] = molecular target: T2, CapB2 and CapA1Ct (GST-CapA1Ct) (Staphylococcus aureus, UniProt A8YPQ5+A8YPQ6); details: 10 µM ATP, 5 mM MgCl2, pH 7.5, 37°C; labelled compound; GST-CapA1Ct(ΔN222) as activator
Target sequence in this assay (A8YPQ5 entry or part of it, one chain of several): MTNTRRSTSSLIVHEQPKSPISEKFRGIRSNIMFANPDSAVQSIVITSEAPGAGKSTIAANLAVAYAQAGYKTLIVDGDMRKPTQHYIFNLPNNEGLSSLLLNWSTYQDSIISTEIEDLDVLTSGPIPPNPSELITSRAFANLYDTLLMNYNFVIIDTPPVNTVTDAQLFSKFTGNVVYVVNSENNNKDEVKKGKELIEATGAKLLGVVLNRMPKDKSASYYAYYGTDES

[2] = molecular target: T2, CapB2 and CapA1Ct (GST-CapA1Ct); details: 10 µM ATP, 5 mM MgCl2, pH 7.5, 37°C; labelled compound; GST-CapA1Ct as activator
Target sequence in this assay (A8YPQ5 entry or part of it, one chain of several): as above

[3] = molecular target: T1, CapB1 (Met1 to Glu228), as it stands in …; test: crystal structure; details: both partners purified

Molecule	autophosphorylation with [γ-32P]ATP, SDS-PAGE, autoradiography [1]	autophosphorylation with [γ-32P]ATP, SDS-PAGE, autoradiography [2]	binding result [3]
Nc1ncnc2c1ncn2[C@@H]1O[C@H](COP(=O)(O)OP(=O)(O)OP(=O)(O)O)[C@@H](O)[C@H]1O [ATP]	the Asn222 deletion did not affect the CapA1 ability to trigger CapB2 autophosphorylation	CapB2 was incubated in the presence of radioactive ATP and different (wild type or mutated)	
B1			binds

Reference: PMC3795738 (PLoS ONE, 2013)
